Key:
Stabilities = assay type: physicochemical; details: for stability: isomerization on storage: methanol or methanol–chloroform mixture (v/v 1:1) as solvent
[1] = target: T1, recombinant human estrogen receptor-α (ER-α) (Homo sapiens, UniProt P03372); assay type: binding; details: at 100 μM compound
T1 sequence (P03372 1-595): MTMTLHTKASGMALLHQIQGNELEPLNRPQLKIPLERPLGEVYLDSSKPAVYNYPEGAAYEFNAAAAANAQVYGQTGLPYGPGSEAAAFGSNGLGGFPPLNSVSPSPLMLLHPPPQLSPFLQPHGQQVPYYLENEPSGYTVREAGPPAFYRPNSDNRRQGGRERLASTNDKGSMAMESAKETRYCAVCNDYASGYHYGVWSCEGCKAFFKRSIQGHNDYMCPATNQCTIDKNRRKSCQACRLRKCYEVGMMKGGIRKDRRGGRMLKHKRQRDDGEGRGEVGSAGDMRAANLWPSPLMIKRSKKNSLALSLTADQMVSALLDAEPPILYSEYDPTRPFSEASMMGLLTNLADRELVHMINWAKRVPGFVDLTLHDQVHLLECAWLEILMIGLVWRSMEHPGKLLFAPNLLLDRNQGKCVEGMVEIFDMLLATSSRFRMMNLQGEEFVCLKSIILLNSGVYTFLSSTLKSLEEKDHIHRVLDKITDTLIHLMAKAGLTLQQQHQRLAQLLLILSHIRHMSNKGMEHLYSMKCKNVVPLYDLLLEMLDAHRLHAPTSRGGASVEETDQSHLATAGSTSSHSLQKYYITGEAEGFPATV

[2] = target: T2, recombinant human aromatase (CYP19) (Homo sapiens, UniProt P11511); assay: Inhibition of recombinant human aromatase
T2 sequence (P11511 1-503): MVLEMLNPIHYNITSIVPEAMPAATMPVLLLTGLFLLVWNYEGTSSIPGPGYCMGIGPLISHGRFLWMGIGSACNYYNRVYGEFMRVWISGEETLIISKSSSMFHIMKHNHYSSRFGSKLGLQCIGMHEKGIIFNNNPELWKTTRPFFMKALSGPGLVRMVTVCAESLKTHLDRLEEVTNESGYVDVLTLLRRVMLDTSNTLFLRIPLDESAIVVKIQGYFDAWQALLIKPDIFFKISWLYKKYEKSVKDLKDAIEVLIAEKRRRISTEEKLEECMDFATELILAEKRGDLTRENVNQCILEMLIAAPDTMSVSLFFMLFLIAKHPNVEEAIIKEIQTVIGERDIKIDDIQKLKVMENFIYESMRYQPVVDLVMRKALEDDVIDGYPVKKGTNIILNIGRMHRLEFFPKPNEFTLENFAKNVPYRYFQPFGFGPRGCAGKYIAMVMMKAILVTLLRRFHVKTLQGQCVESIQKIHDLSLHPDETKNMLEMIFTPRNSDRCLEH

[3] = target: recombinant human estrogen receptor-β (ER-β) (Homo sapiens, UniProt Q92731); assay type: binding; details: at 100 μM compound
Sequence of recombinant human estrogen receptor-β (ER-β) (Q92731 whole entry): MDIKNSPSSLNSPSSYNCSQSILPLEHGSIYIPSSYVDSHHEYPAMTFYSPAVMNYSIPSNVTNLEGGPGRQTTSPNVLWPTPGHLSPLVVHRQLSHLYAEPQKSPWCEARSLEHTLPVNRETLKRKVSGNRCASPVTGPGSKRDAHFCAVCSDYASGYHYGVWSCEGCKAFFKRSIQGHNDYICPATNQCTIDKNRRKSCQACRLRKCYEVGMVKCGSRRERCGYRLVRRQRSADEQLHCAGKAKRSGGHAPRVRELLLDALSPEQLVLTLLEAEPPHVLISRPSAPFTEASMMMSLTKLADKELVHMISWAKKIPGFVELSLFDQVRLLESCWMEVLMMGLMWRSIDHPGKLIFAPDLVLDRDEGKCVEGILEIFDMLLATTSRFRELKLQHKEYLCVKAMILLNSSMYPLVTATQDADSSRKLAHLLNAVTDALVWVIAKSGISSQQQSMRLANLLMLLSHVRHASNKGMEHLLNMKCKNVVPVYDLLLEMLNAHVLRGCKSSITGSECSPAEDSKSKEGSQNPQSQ

Structure (SMILES)	stability: isomerization on storage (Stabilities)	stability: isomerization to mixed (E,Z)-norendoxifen (Stabilities; chloroform (or dichloromethane) as the single solvent)	ER-α percent competition [1] [% competition]	fold less potent against aromatase than mixed (E,Z)-norendoxifen [2] [fold]	ER-β percent competition [3] [% competition]
CC/C(=C(/c1ccc(O)cc1)c1ccc(OCCN)cc1)c1ccccc1 [E-4, (E)-4-(1-(4-(2-Aminoethoxy)phenyl)-2-phenylbut-1-enyl)phenol]	stored for at least a few weeks without substantial isomerization	–	–	–	–
CC/C(=C(\c1ccc(O)cc1)c1ccc(OCCN)cc1)c1ccccc1 [Z-4, (Z)-4-(1-(4-(2-Aminoethoxy)phenyl)-2-phenylbut-1-enyl)phenol]	stored for at least a few weeks without substantial isomerization	fast isomerization	–	–	–
CCC(=C(c1ccc(O)cc1)c1ccc(O)cc1)c1ccccc1 [compound 2, 4,4′-(2-Phenylbut-1-ene-1,1-diyl)diphenol]	–	–	80	–	–
CC/C(=C(\c1ccc(O)cc1)c1ccc(OCC(N)=O)cc1)c1ccccc1 [compound 3, (E,Z)-2-(4-(1-(4-Hydroxyphenyl)-2-phenylbut-1-enyl)phenoxy)-acetamide]	–	–	57	90	71
CC/C(=C(/c1ccc(O)cc1)c1ccc(OC(=O)C(C)(C)C)cc1)c1ccccc1 [compound 6, (E)-4-(1-(4-Hydroxyphenyl)-2-phenylbut-1-enyl)phenyl Pivalate]	–	–	68	–	68
CC/C(=C(/c1ccc(OCC(N)=O)cc1)c1ccc(OC(=O)C(C)(C)C)cc1)c1ccccc1 [compound 7, (E)-4-(1-(4-(2-Amino-2-oxoethoxy)phenyl)-2-phenylbut-1-enyl)-phenyl Pivalate]	–	–	56	–	45

Reference: paper PMC4043309 (Journal of medicinal chemistry, 2013)
